From ChEMBL document CHEMBL3785061, “Evaluation of the anti-inflammatory action of curcumin analog (DM1): Effect on iNOS and COX-2 gene expression and autophagy pathways” (Bioorg Med Chem, 2016) come the findings set out here.

Calls of active or inactive are those of the source. The calls are words filed in the database; no cut-off is given here.

For data set [1], the system named is RAW264.7. Nature of the data set: Inhibition of COX2 expression in LPS-stimulated mouse RAW264.7 cells at 12.5 to 50 ug/ml preincubated with the compound followed by LPS stimulation for 24 hrs by Real-Time PCR. Format: functional, cell-based. A general note: Quantitative PCR measures a nucleic acid by following its amplification.
Data set [2] deals with RAW264.7. In words: Cytotoxicity against mouse RAW264.7 cells assessed as cell viability at 100 ug/ml after 24 hrs by MTT assay. Format: cell-based. As to conditions: raw264.7, 24 h.
Data set [3] has as its system RAW264.7. In words: Inhibition of iNOS expression in LPS-stimulated mouse RAW264.7 cells at 12.5 to 50 ug/ml preincubated with the compound followed by LPS stimulation for 24 hrs by Real-Time PCR. Format: functional, cell-based.
Data set [4] relates to A-375. In words: Induction of autophagy in human A375 cells assessed as increase in LC3-2 complex concentration at 65 uM after 1 hr by Western blot analysis. It counts as functional, cell-based. For orientation: Immunoblotting shows a protein as a band on a membrane.
Data set [5] deals with A-375. In words: Induction of autophagy in human A375 cells assessed as increase in LC3-2 complex concentration at 65 uM after 6 hrs by Western blot analysis. It counts as functional, cell-based.
In data set [6] the test system is Mus musculus. Nature of the data set: Antiinflammatory activity in carrageenan-induced Swiss mouse peritonitis model assessed as effect on total number of cells in peritonial cavity at 1 to 10 mg/kg, ip administered 30 mins prior to carrageenan challenge. It counts as functional, organism-based.
The test system of data set [7] is Mus musculus. In words: In vivo inhibition of myeloperoxidase activity in bradykinin-induced Swiss mouse peritonitis model at 1 to 100 mg/kg, ip administered prior to bradykinin challenge for 4hrs. It counts as functional, organism-based.
Data set [8] deals with Mus musculus. Nature of the data set: Antiinflammatory activity against carrageenan-induced paw edema in Swiss mouse at 10 mg/kg, ip measured at 15 to 90 mins administered 30 mins prior to carrageenan-challenge by plethysmometric analysis. Format: functional. (In the carrageenan paw model, swelling and tenderness develop within hours.)
Data set [9] concerns Mus musculus. In words: Antiinflammatory activity against carrageenan-induced paw edema in Swiss mouse at 100 mg/kg, ip measured at 15 to 90 mins administered 30 mins prior to carrageenan-challenge by plethysmometric analysis. It counts as functional.
The subject of data set [10] is Mus musculus. Nature of the data set: Antiinflammatory activity against bradykinin-induced paw edema in Swiss mouse at 10 mg/kg, ip measured at 15 to 90 mins administered 30 mins prior to bradikynin-challenge by plethysmometric analysis. It counts as functional.
Data set [11] deals with Mus musculus. In words: Antiinflammatory activity against bradykinin-induced paw edema in Swiss mouse at 3 mg/kg, ip measured at 15 to 90 mins administered 30 mins prior to bradikynin-challenge by plethysmometric analysis. Format: functional.
The test system of data set [12] is Mus musculus. Nature of the data set: Antiinflammatory activity against substance-P-induced paw edema in Swiss mouse at 10 mg/kg, ip measured at 15 to 90 mins administered 30 mins prior to substance p-challenge by plethysmometric analysis. It counts as functional.
Data set [13] has as its system Mus musculus. In words: Antiinflammatory activity against substance-P-induced paw edema in Swiss mouse at 100 mg/kg, ip measured at 15 to 90 mins administered 30 mins prior to substance p-challenge by plethysmometric analysis. It counts as functional.
Data set [14] deals with Mus musculus. In words: Antiinflammatory activity in carrageenan-induced Swiss mouse peritonitis model assessed as decrease in total number of cells in pertonial cavity at 100 mg/kg, ip administered 30 mins prior to carrageenan challenge. Format: functional. Set-up: scale not given: the % may be the effect or the level left.
For data set [15], the system named is Mus musculus. Nature of the data set: Antiinflammatory activity in bradykinin-induced Swiss mouse peritonitis model assessed as decrease in total number of cells in pertonial cavity at 1 mg/kg, ip administered for 30 mins prior to bradykinin challenge. It counts as functional, organism-based.
The subject of data set [16] is Mus musculus. Nature of the data set: Antiinflammatory activity in bradykinin-induced peritonitis Swiss mouse model assessed as decrease in total number of cells in pertonial cavity at 10 mg/kg, ip administered for 30 mins prior to bradykinin challenge. It counts as functional.
In data set [17] the test system is Mus musculus. Nature of the data set: Antiinflammatory activity in bradykinin-induced peritonitis Swiss mouse model assessed as decrease in total number of cells in pertonial cavity at 100 mg/kg, ip administered for 30 mins prior to bradykinin challenge. It counts as functional.
Data set [18] relates to Mus musculus. Nature of the data set: Antiinflammatory activity in bradykinin-induced peritonitis ip dosed Swiss mouse model assessed as decrease in total number of cells in pertonial cavity administered for 4 hrs prior to bradykinin challenge. Format: functional.
Data set [19] deals with Mus musculus. In words: In vivo inhibition of myeloperoxidase activity in carrageenan-induced Swiss mouse peritonitis model at 1 to 100 mg/kg, ip administered prior to carrageenan challenge for 4hrs. Format: functional, organism-based.
Data set [20] relates to Mus musculus. Nature of the data set: Antiinflammatory activity in substance p-induced Swiss mouse peritonitis model assessed as decrease in total number of cells in pertonial cavity at 1 to 10 mg/kg, ip administered for 30 mins prior to substance-P challenge. Format: functional, organism-based.
Data set [21] relates to Mus musculus. In words: Antiinflammatory activity in substance p-induced Swiss mouse peritonitis model assessed as decrease in total number of cells in pertonial cavity at 100 mg/kg, ip administered for 30 mins prior to substance-P challenge. It counts as functional.
Data set [22] concerns RAW264.7. Nature of the data set: Inhibition of LPS-induced nitric oxide production in mouse RAW264.7 cells preincubated for 1 hr followed by LPS stimulation by Greiss assay. It counts as functional, cell-based.
The test system of data set [23] is Mus musculus. In words: Antiinflammatory activity in bradykinin-induced peritonitis Swiss mouse model assessed as decrease in total number of cells in pertonial cavity at 3 mg/kg, ip administered for 30 mins prior to bradykinin challenge. It counts as functional.
For data set [24], the system named is Mus musculus. In words: Antiinflammatory activity against carrageenan-induced paw edema in Swiss mouse at 3 mg/kg, ip measured at 15 to 90 mins administered 30 mins prior to carrageenan-challenge by plethysmometric analysis. Format: functional.
Data set [25] has as its system Mus musculus. In words: Antiinflammatory activity against bradykinin-induced paw edema in Swiss mouse at 100 mg/kg, ip measured at 15 to 90 mins administered 30 mins prior to bradikynin-challenge by plethysmometric analysis. It counts as functional.
Data set [26] deals with Mus musculus. In words: Antiinflammatory activity against substance-P-induced paw edema in Swiss mouse at 3 mg/kg, ip measured at 15 to 90 mins administered 30 mins prior to substance p-challenge by plethysmometric analysis. Format: functional.
Data set [27] has as its system Mus musculus. Nature of the data set: Antiinflammatory activity in carrageenan-induced Swiss mouse peritonitis model assessed as decrease in total number of cells in pertonial cavity at 3 mg/kg, ip administered for 4 hrs prior to carrageenan challenge. More on the design: scale not given: the % may be the effect or the level left. Format: functional.
Data set [28] has as its system Mus musculus. Nature of the data set: Antiinflammatory activity in substance p-induced Swiss mouse peritonitis model assessed as decrease in total number of cells in pertonial cavity at 3 mg/kg, ip administered for 30 mins prior to substance-P challenge. Format: functional.

For orientation: inhibition in vivo means the percentage by which the read-out fell short of the control. By ED50 is commonly meant the dose that gives a 50% effect, or the effect in half of the subjects. Broadly, the IC50 is the concentration that gives 50% inhibition. In the case of `COc1cc(/C=C/C(=O)/C=C/c2ccc(O)c(OC)c2)ccc1[O-].[Na+]`, the inhibition result in the data set with RAW264.7 [1], in the data set with RAW264.7 [3], in the data set with Mus musculus [7] and in the data set on Mus musculus [19] was “Active” in each case. For the same compound, the Activity entry was “Non-toxic” in the data set with RAW264.7 [2] and 38.4% with Mus musculus [14]. The result with A-375 [4] was Active. Also, the result with A-375 [5], in the data set with Mus musculus [6], with Mus musculus [15] and in the data set on Mus musculus [20] was inactive. Besides, the inhibition in vivo at 10 mg/kg in the data set with Mus musculus [8] is 17.2%; with Mus musculus [10], 30.8%; with Mus musculus [12], 15.4%; with Mus musculus [16], 65.4%. Also, the inhibition in vivo at 100 mg/kg amounted to 18.9% with Mus musculus [9], 31.5% in the data set on Mus musculus [13], 78.8% in the data set with Mus musculus [17] and 40% with Mus musculus [21]. This compound displayed an inhibition in vivo at 3 mg/kg with Mus musculus [11] of 39.2%. Besides, in the data set with Mus musculus [18], the 50% effective dose (ED50) is 7.6 mg/kg. This compound registered an IC50 in the data set on RAW264.7 [22] of 7.7 µM.

`CC(=O)OCC(=O)[C@@]12N=C(C)O[C@@H]1C[C@H]1[C@@H]3CCC4=CC(=O)C=C[C@]4(C)[C@H]3[C@@H](O)C[C@@]12C` [DEFLAZACORT]: the inhibition entry with Mus musculus [7] and in the data set with Mus musculus [19] was “Active” each time. Further, the inhibition in vivo at 3 mg/kg in the data set with Mus musculus [23] was determined as 46.2%; in the data set on Mus musculus [24], 29.2%; in the data set with Mus musculus [26], 32.8%; with Mus musculus [28] it was 53.3%. This compound also registered an inhibition in vivo at 100 mg/kg with Mus musculus [25] of 30.1%. The Activity in the data set on Mus musculus [27] is 57.1%.
